Data set [1] relates to patient leukemic cells (AML samples). The data set can be described thus: cells. The data set is classed as cell-based. The procedure: (§1) After informed consent bone marrow and peripheral blood cells were obtained at diagnosis from 6 pediatric AML patients aged 0-18 years. The diagnosis is assessed by cytomorphology using FAB classification and immunophenotyping (Bennett J M et al., Br. J. Haematol. 33: 451-458, 1976). Mononuclear cells (MNC) are separated by Lymphoprep (Nycomed, Oslo, Norway) density gradients and cryopreserved in liquid nitrogen until use. Cryopreserved AML cells are thawed rapidly at 37° C., diluted in a 5× volume of normal calf serum (NCS) as described by Dokter W H et al., Leukemia 9: 425-432, 1995. The remaining pellet is T-cell depleted by sheep red blood cells and separated over lymphoprep density gradient. Remaining blast cell population contained more than 95% AML cells, hereafter referred to as AML cells and cultured in RPMI-1640 supplemented with penicillin/streptomycin and 10% fetal bovine serum.
For the leukemic samples (10,000 cells/well) of the patients a 3-day cell culture is used. […] The optical density (OD) is linearly related to the number of viable cells. Control wells contain leukemic cells only with culture media without drugs, and blank wells contain culture media only. […] The LC50 value (drug concentration needed to kill 50% of the leukemic cells) is used to compare the differences between patients and/or various drug combinations. LC50 value equation: ([% leukemic cell survival >50%]−50)/([% leukemic cell survival >50%]−[% leukemic cell survival <50%])×(drug concentration when leukemic cell survival <50%−drug concentration when leukemic cell survival >50%)+(drug concentration when leukemic cell survival >50%).

Data set [2] deals with TF-1 cells. Description: Survival assay, viable cells counted by trypan blue exclusion after 24 hours. The data set is classed as cell-based. The procedure: The cell lines HL-60, TF-1, K562 and U937 are obtained from American Type Culture Collection (Manassas, Va., USA) and cultured in RPMI-1640 (Roswell Park Memorial Institute) supplemented with penicillin/streptomycin and 10% fetal bovine serum (FBS, Hyclone, Logan, Utah, USA) for U937, K562 and HL-60 cells and supplemented with GM-CSF 1 ng/mL for TF-1 cells.
(§2) Before incubation with recombinant (rec) VEGF165 (Sigma, St. Louis, […].) and/or PTK787, AML cells and/or cell lines are serum starved for 4 hours in serum free medium (X-vivo 10, Biowhitaker, Brussels, Belgium). For proliferation experiments, cells are cultured in six-well plates (Corning-Costar Corp., Cambridge, Mass., USA), at a cell density of 1×10^5 cells per well in serum free medium (X-vivo-10) for 24 hours. Cells are treated (rec VEGF165 5-100 ng/mL) or untreated (media alone) and are cultured in the presence or absence of PTK787 (5-100 nM). After 24 hours viable cells (determined by trypan blue exclusion) are counted in triplicate using a hemocytometer. Each experiment is done in triplicate, and experiments with leukemic cell lines are repeated three times.

The next data set has as its system K562 cells. Description: Total cell kill assay (MTT), leukemic cell line. The data set is classed as cell-based. The settings on record: PTK787 in different concentrations.
For data set [3], the system named is primary AML cells of pediatric AML patients. Description: Patient leukemic cell survival counted by trypan blue exclusion. The class given is cell-based, human. The procedure: as §1, §2
Correlations are calculated using the Spearman rank correlation coefficient (rho). A paired sample non-parametric test (Wilcoxon Signed Ranks test) is used to analyze the paired viable cells (with or without VEGF, as well as with or without PTK787). A significant difference is defined as a P-value <0.05.

For data set [4], the system named is TF-1 cells. Description: Total cell kill assay (MTT), leukemic cell line. The class given is cell-based. Conditions: PTK787 in different concentrations. As for the experimental part:
(§3) In vitro cellular drug resistance of leukemic HL-60 and TF-1 cells (10,000 cells/well) are assessed using a 2-day cell culture assay based on the principle that only viable cells are able to reduce 3-(4,5-dimethyl-2-thiazolyl)-2,5-diphenyl-tetrazolium bromide (MTT) (5 mg/mL in PBS added to each well for 4 hours) to a colored formazan product, measured spectrophotometrically at 520 nm. For the leukemic samples (10,000 cells/well) of the patients a 3-day cell culture is used. […] The optical density (OD) is linearly related to the number of viable cells. Control wells contain leukemic cells only with culture media without drugs, and blank wells contain culture media only. Percentage of cell survival is calculated at each drug concentration by the equation (mean OD treated wells/mean OD control wells)×100% after correction for the background found in the blank wells. The results are considered evaluable when the control wells still contain 70% or more leukemic cells (determined by MGG staining) after a 3-day culture period. The mean OD of the control wells after correction for the background at 3 days always exceeds 0.1 arbitrary units for valid results. The LC50 value (drug concentration needed to kill 50% of the leukemic cells) is used to compare the differences between patients and/or various drug combinations. […]

The subject of the next data set is HL-60 cells. The data set can be described thus: Total cell kill assay (MTT), leukemic cell line. The class given is cell-based. The settings on record: PTK787 in different concentrations. The procedure:
as §3

Data set [5] concerns TF-1 cells. The data set can be described thus: Apoptosis shown by PI DNA labeling (cell cycle analysis). The data set is classed as cell-based. Conditions: dose-dependent, overnight culture, 5% in control wells. As for the experimental part: Cells are washed with PBS and resuspended in 75% ethanol in PBS and kept at 4° C. for at least 30 minutes. Prior to analysis, cells are washed with PBS, resuspended and incubated for 30 minutes in 1 mg/mL RNase A in PBS and thereafter incubated in staining solution containing 0.05 mg/mL propidium iodide (Sigma), 1 mM EDTA and 0.1% Triton-X-100. The suspension is then passed through a nylon mesh filter and analyzed on Becton Dickinson FACScan.

In data set [6] the test system is A431 epidermoid, Ls174T colon, HT-29 colon, PC-3 prostate carcinoma. The settings on record: HT-29, PC-3 carcinomas; cited from earlier work.
Setting [7] is: Homo sapiens, read-out: LC50 value, Patient No. 1, drug alone.
Where [8] appears, read: Homo sapiens, read-out: LC50 value, Patient No. 1, with PTK787 5 nM.
Where [9] appears, read: Homo sapiens, read-out: LC50 value, Patient No. 1, with PTK787 10 nM.
The mark [10] stands for this setting: Homo sapiens, read-out: LC50 value, Patient No. 1, with PTK787 25 nM.
Where [11] appears, read: Homo sapiens, read-out: LC50 value, Patient No. 2, drug alone.
Where [12] appears, read: Homo sapiens, read-out: LC50 value, Patient No. 2, with PTK787 5 nM.
[13] abbreviates: Homo sapiens, read-out: LC50 value, Patient No. 3, drug alone.
Setting [14] is: Homo sapiens, read-out: LC50 value, Patient No. 3, with PTK787 5 nM.
The mark [15] stands for this setting: Homo sapiens, read-out: LC50 value, Patient No. 4, drug alone.
Where [16] appears, read: Homo sapiens, read-out: LC50 value, Patient No. 4, with PTK787 5 nM.
[17] abbreviates: Homo sapiens, read-out: LC50 value, Patient No. 5, drug alone.
[18] abbreviates: Homo sapiens, read-out: LC50 value, Patient No. 5, with PTK787 5 nM.
The mark [19] stands for this setting: PTK787 (25 nM) plus exogenous VEGF165.

We go through three compounds from patent publication US20100261726A1, “TREATMENT OF AML” (priority 2002, published 2010).

Where two headings read alike, the source gives them in different places.

With `Nc1ccn([C@@H]2O[C@H](CO)[C@@H](O)[C@@H]2O)c(=O)n1` [Cytarabine, cytarabine], the CC50 in data set [1] (setting [7]) was 400 µg/mL; in data set [1] (setting [8]), 260 µg/mL; in data set [1] (setting [9]), 250 µg/mL; in data set [1] (setting [10]), 35 µg/mL; in data set [1] (setting [11]) it was 5 µg/mL; in data set [1] (setting [12]) it was 0.6 µg/mL. The CC50 in data set [1] (setting [13]) amounted to 4.7 µg/mL; in data set [1] (setting [14]) it was 0.23 µg/mL; in data set [1] (setting [15]), 1500 µg/mL; in data set [1] (setting [16]), 560 µg/mL; in data set [1] (Homo sapiens, read-out: LC50 value, Patient No. 4, with PTK787 10 nM) it was 10 µg/mL; in data set [1] (Homo sapiens, read-out: LC50 value, Patient No. 4, with PTK787 25 nM), 0.2 µg/mL. The figures for the CC50 in data set [1] (setting [17]) and in data set [1] (setting [18]) were 3 µg/mL and 0.24 µg/mL, respectively.

As for `Clc1ccc(Nc2nnc(Cc3ccncc3)c3ccccc23)cc1` [PTK787], the TF-1 cell survival with TF-1 cells [2] (25 nM PTK787, 24 hours) is reported as 21.9%. In addition, in the data set on TF-1 cells [2] (25 and 50 nM PTK787 plus rec VEGF, TF-1 cells), the “effect of PTK787 on cell survival on addition of rec VEGF” value is listed as “can be blocked”. Moreover, the leukemic cell survival result in the data set with K562 cells is reported as “no decrease at all”; in the data set with TF-1 cells [4], “up to 10%”; in the data set with HL-60 cells it was “up to 1%”. For the same compound, the “decrease in cell survival, median” value in data set [3] (setting [19]) turned out to be 15%. Besides, the “decrease in cell survival, range over patients” value in data set [3] (setting [19]) is reported as 0%-35.5%; in data set [3] (PTK787 alone (25 nM)), 28.2%-75.4%. Besides, the “decrease in cell survival (cell death), median” value in data set [3] (PTK787 alone (25 nM), patient samples, p-value 0.043) was found to be 55.1%. The CC50 in data set [1] (Patient No. 1, 72 hours, read-out: LC50 value) was > 25 nM; in data set [1] (Patient No. 2, 72 hours, read-out: LC50 value) it was 7.3 nM; in data set [1] (Patient No. 3, 72 hours, read-out: LC50 value) it was 5.8 nM; in data set [1] (Patient No. 4, 72 hours, read-out: LC50 value), 25 nM; in data set [1] (Patient No. 5, 72 hours, read-out: LC50 value), 7.7 nM; in data set [1] (Patient No. 6, 72 hours, read-out: LC50 value) it was 14.5 nM. For the same compound, in the data set on TF-1 cells [5], the “apoptosis (fraction of apoptotic cells)” value is given as “up to 12%”. Besides, the “growth of human carcinomas transplanted orthotopically into mice” value in data set [6] was “inhibits the growth”. Also, the “vessel density in the tumor tissues” value in data set [6] is reported as “does reduce vessel density”.

On to `O=C1c2c(O)ccc(O)c2C(=O)c2c(NCCNCCO)ccc(NCCNCCO)c21` [Mitoxantrone, mitoxantrone], for which the CC50 was determined as 0.23 µg/mL in data set [1] (setting [7]); 0.16 µg/mL in data set [1] (setting [8]); 0.19 µg/mL in data set [1] (setting [9]); 0.03 µg/mL in data set [1] (setting [10]); 0.0175 µg/mL in data set [1] (setting [11]); 6.1e-05 µg/mL in data set [1] (setting [12]). Also, the CC50 in data set [1] (setting [13]) amounted to 0.043 µg/mL; in data set [1] (setting [14]), 0.0004 µg/mL; in data set [1] (setting [15]), 0.054 µg/mL; in data set [1] (setting [16]), 2.3e-05 µg/mL; in data set [1] (setting [17]), 0.0186 µg/mL; in data set [1] (setting [18]), 6.1e-05 µg/mL. In data set [1] (Homo sapiens, read-out: LC50 value, Patient No. 5, with PTK787 10 nM), the CC50 was found to be 8e-07 µg/mL.
